Data set [1] has as its system ORFeus-Hs (synthetic human L1) retrotransposition in HeLa cells. The experiment in a line: Cell-based L1 retrotransposition assay, ORFeus-Hs. The settings on record: for activity at 5 µM / activity at 50 µM / Relative retrotransposition efficiency: control = 1.0, normalized to cell viability; for activity at 5 µM / activity at 50 µM: read-out: Relative retrotransposition efficiency. How it is done: (§1) The cell-based retrotransposition assay was conducted as described. HeLa cells (a gift from Dr. John Moran, University of Michigan) were seeded in 6-well dishes in DMEM (2×10^5 cells/well). The next day cells were transfected with Fugene 6 according to the manufacturer's manual. Each transfection consisted of 96 μl Opti-Mem, 1 μg pWA195 DNA and 3 μl Fugene 6. Sixteen hours after transfection, the cells were trypsinized and transferred to a 6 cm plate in DMEM with 2.5 μg/ml puromycin and the RT inhibitors. Three days after puromycin selection, dead cells were removed and puromycin resistant cells were trypsinized and counted with a hemocytometer. The puromycin resistant cells were plated on a 10 cm plate (1×10^4 cells/plate) in 10 ml DMEM with 500 μg/ml G418. The RT inhibitors were added to the same concentration as in the puromycin selection. […] Two weeks later, G418 resistant cells were fixed to the plate and stained with 0.1% crystal violet. The number of G418 resistant colonies was counted to calculate retrotransposition frequency. Six independent assays were done for each RT inhibitor.

Data set [2] concerns the target T1, Ty1 RT (Saccharomyces cerevisiae, UniProt Q99231).
T1 construct: recombinant Ty1 RT, which required C-terminal residues of integrase for its RT activity; made in house; host or cells: E. coli BL21 (co-transformed with chaperone plasmid pG-Tf2)
T1 sequence (Q99231 1103-1755): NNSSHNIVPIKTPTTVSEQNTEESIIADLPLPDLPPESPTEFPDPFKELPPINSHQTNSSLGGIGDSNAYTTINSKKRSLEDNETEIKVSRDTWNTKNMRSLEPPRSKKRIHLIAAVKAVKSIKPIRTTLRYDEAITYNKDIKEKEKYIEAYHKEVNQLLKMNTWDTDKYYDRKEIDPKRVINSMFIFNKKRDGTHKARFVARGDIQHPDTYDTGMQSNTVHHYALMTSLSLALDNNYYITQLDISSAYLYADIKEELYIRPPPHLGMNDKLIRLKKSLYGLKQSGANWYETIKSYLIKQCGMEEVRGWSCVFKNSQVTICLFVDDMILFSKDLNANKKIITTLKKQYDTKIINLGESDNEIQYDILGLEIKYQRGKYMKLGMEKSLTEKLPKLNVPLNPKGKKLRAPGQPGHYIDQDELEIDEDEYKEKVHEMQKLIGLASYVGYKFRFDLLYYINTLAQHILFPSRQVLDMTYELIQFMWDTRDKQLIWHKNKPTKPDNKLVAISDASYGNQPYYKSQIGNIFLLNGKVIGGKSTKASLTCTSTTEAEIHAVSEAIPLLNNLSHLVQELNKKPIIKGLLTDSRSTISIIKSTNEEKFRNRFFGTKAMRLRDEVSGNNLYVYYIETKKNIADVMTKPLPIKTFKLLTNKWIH
Kind of data set: In vitro RT assay with recombinant Ty1 RT. In kind it is biochemical. The settings on record: for increase of Ty1 RT activity: at low concentrations; for high concentration at which Ty1 RT was inhibited: inhibited only at this high concentration. How it is done:
(§2) The RT assays for HIV-1 and L1 RT were performed in a 20 μl reaction mixtures containing 50 mM Tris-Cl (pH 8.0), 50 mM KCl, 5 mM MgCl2, 10 mM DDT, 0.01 U template/primer, 1 μl [α-^32P] dTTP or [α-^32P] dCTP (final concentration 0.17 μM, 3000 Ci/mmol, 10 mCi/ml) at 37°C for 30 min. Then the mixture was spotted on DE81 paper and washed three times with 2×SSC buffer for a total time of 30 min. The DE81 paper was dried and counted by scintillation counter Beckman LS6000SC. RT assay for Ty1 RT was done under the same buffer condition except that 20 mM MgCl2 was used and the reaction mixture was incubated at room temperature. In each reaction the amounts of L1, HIV-1 and Ty1 RTs with the same specific activity were added. To test the inhibition of the RT inhibitors, 1 μl inhibitor was included in the mixture to obtain the desired concentration. […] All assays were done at least in triplicate.

For data set [3], the target named is T2, human L1 reverse transcriptase (MBP-RT fusion) (Homo sapiens, UniProt O00370).
T2 construct: Human L1 ORF2 amino acid 238-1061 was inserted behind MBP gene in frame; made in house; host or cells: E. coli BL21
Kind of data set: In vitro (cell-free) RT assay and kinetic analysis with recombinant L1 RT. In kind it is biochemical. The settings on record: for IC50: calculated as IC50 = Ki(1+ S/Km), read-out: IC50 against L1 RT; for Ki: competitive with respect to dTTP (AZTTP, d4TTP) or dCTP (ddCTP, 3TCTP), Lineweaver-Burk, read-out: Ki against L1 RT; for high concentration at which L1 RT was inhibited: inhibited only at this high concentration. Here is the method: as §2
The kinetic analysis was performed under the same conditions described above but with various concentrations of substrates and inhibitors as indicated in the text. Poly (rA)-oligo (dT)12-18 and [α-^32P] dTTP were used to analyze AZTTP and d4TTP. Poly (rI)-oligo (dC)12-18 and [α-^32P] dCTP were used to assay ddCTP and 3TCTP.

Data set [4] deals with ORFeus-Mm (synthetic mouse L1) retrotransposition. Kind of data set: Cell-based L1 retrotransposition assay, ORFeus-Mm. The settings on record: control = 1.0, normalized to cell viability. Here is the method: as §1
The next data set has as its system HIV-1. Set-up: method as in PMID 2413459. The note with it: cited from earlier work.
In a further data set the test system is HeLa cells. The experiment in a line: Cell cytotoxicity of RT inhibitors. In kind it is cell-based, human. How it is done:
Untransfected Hela cells were plated on 10 cm plate (500 cells/plate) with and without RT inhibitors. Ten days later, cells were fixed to the plate and stained with 0.1% crystal violet. The number of colonies was counted to calculate colony formation ability. Colony formation ability of control assay without inhibitors was considered as 1.0 and colony formation ability in the presence of inhibitors was indicated as relative efficiency with respect to the control.

For a further data set, the system named is HIV-1 RT. The settings on record: read-out: IC50 against HIV-1 RT; previously reported; cited from earlier work.
For data set [5], the system named is AMV RT, MLV RT, human DNA polymerases α, β, γ and Klenow fragment. The settings on record: cited from earlier work.
In data set [6] the target is T1, Ty1 RT. On the set-up: method as in PMID 10816427, PMID 11577982. The settings on record: ratio of ddGTP/GTP 0.2; cited from earlier work.

Like-named read-outs stand apart in the source and are kept apart here. Marks after values point to notes of the source that are not given here.

For `Nc1ccn([C@H]2CS[C@@H](CO)O2)c(=O)n1` [3TC, 2',3'-dideoxy-3'-thiacytidine], in data set [1] (Homo sapiens, HeLa, 5 μM), the activity at 5 µM was 8 ± 3%. In data set [1] (Homo sapiens, HeLa, 50 μM), the activity at 50 µM was 3 ± 3%.
Broadly, the IC50 is the concentration that gives 50% inhibition. One may read the Ki as the equilibrium dissociation constant of an inhibitor or competing ligand from its target. For `Nc1ccn([C@@H]2CS[C@H](COP(=O)(O)OP(=O)(O)OP(=O)(O)O)O2)c(=O)n1` [3TCTP, 2',3'-dideoxy-3'-thiacytidine triphosphate], the “increase of Ty1 RT activity” value at Ty1 RT [2] is on record as “up to 40%”. In data set [3], the IC50 was 18.6 nM and the Ki was determined as 12.9 ± 0.16 nM.
On to `Nc1nc(NC2CC2)c2ncn(C3C=C[C@H](CO)C3)c2n1` (stereo partly drawn) [ABC, [(1R)-4-[2-amino-6-(cyclopropylamino)purin-9-yl]-1-cyclopent-2-enyl]methanol], for which the Relative retrotransposition efficiency in data set [4] (5 μM) came to 0.80 ± 0.05; in data set [4] (50 μM) it was 0.15 ± 0.03. Also, in data set [1] (Homo sapiens, HeLa, 5 μM), the activity at 5 µM was determined as 74 ± 6%. For the same compound, the activity at 50 µM in data set [1] (Homo sapiens, HeLa, 50 μM) stood at 20 ± 4%.
`Cc1cn([C@H]2C[C@H](N=[N+]=[N-])[C@@H](CO)O2)c(=O)[nH]c1=O` [AZT, azidothymidine]: in the data set with HIV-1, the “concentration completely inhibiting HIV-1 production” value is 1 to 3 µM. The Relative retrotransposition efficiency in data set [4] (5 μM) is 0.75 ± 0.08; in data set [4] (50 μM), 0.16 ± 0.02. In data set [1] (Homo sapiens, HeLa, 5 μM), the activity at 5 µM came to 62 ± 6%. Further, the activity at 50 µM in data set [1] (Homo sapiens, HeLa, 50 μM) is 23 ± 4%.
Consider `Cc1cn([C@H]2C[C@H](N=[N+]=[N-])[C@@H](CO[P@](=O)(O)O[P@](=O)(O)OP(=O)(O)O)O2)c(=O)[nH]c1=O` [AZTTP, azidothymidine triphosphate], for which the “increase of Ty1 RT activity” value on Ty1 RT [2] is given as “up to 40%”. In data set [3], the IC50 was 19.8 nM and the Ki stood at 16.4 ± 4.21 nM.
The term inhibition denotes the drop in the measured response relative to a control, in per cent. As to `CC(C)Nc1cccnc1N1CCN(C(=O)c2cc3cc(NS(C)(=O)=O)ccc3[nH]2)CC1` [DLV, delavirdine], the “concentration causing massive HeLa cell death” value in the data set on HeLa cells was found to be 100 µM. Also, the Relative retrotransposition efficiency is reported as 0.60 ± 0.05 in data set [4] (5 μM) and 0.02 ± 0.01 in data set [4] (50 μM). In data set [1] (Homo sapiens, HeLa, 5 μM), the activity at 5 µM is 63%. For the same compound, in data set [1] (Homo sapiens, HeLa, 50 μM), the activity at 50 µM amounted to 28 ± 3%. In addition, the inhibition at 50 µM in [1] (Homo sapiens, HeLa, 50 μM, read-out: inhibition of L1 retrotransposition efficiency) was ~72%. The “high concentration at which Ty1 RT was inhibited” value on Ty1 RT [2] came out at 50 µM. In addition, the “high concentration at which L1 RT was inhibited” value in data set [3] worked out at 50 µM. The IC50 in the data set with HIV-1 RT was 260 nM.
On to `O=C1Nc2ccc(Cl)cc2[C@@](C#CC2CC2)(C(F)(F)F)O1` [EFV, efavirenz], for which the “concentration causing massive HeLa cell death” value with HeLa cells was 50 µM. Further, the activity at 5 µM in [1] (Homo sapiens, HeLa, 5 μM) is 28 ± 2%. In addition, in data set [1] (Homo sapiens, HeLa, 5 μM, read-out: inhibition of L1 retrotransposition efficiency), the inhibition at 5 µM was ~72%. The “high concentration at which Ty1 RT was inhibited” value on Ty1 RT [2] was found to be 500 µM. In addition, the “high concentration at which L1 RT was inhibited” value in [3] is 500 µM. Also, the “activity against a variety of polymerases” value in [5] is “inactive”.
Take `Nc1nc(=O)n(C2CSC(CO)O2)cc1F` (stereo not drawn) [FTC, 4-amino-5-fluoro-1-[2-(hydroxymethyl)-1,3-oxathiolan-5-yl]-pyrimidin-2-one]: the values for the Relative retrotransposition efficiency in data set [4] (5 μM) and in data set [4] (50 μM) were 0.34 ± 0.01 and 0.26 ± 0.04, respectively. Further, in data set [1] (Homo sapiens, HeLa, 5 μM), the activity at 5 µM is 25 ± 1%. Besides, the activity at 50 µM in data set [1] (Homo sapiens, HeLa, 50 μM) amounted to 12 ± 4%.
For the compound `Cc1cn([C@H]2C=C[C@@H](CO)O2)c(=O)[nH]c1=O` [d4T, 2'-3'-didehydro-2'-3'-dideoxythymidine], the Relative retrotransposition efficiency in [4] (5 μM) worked out at 0.28 ± 0.05; in data set [4] (50 μM), 0.01 ± 0.02; in data set [1] (5 μM), 0.50 ± 0.05; in data set [1] (50 μM) it was 0.05 ± 0.04.
In the case of `Cc1cn([C@H]2C=C[C@@H](COP(=O)(O)OP(=O)(O)OP(=O)(O)O)O2)c(=O)[nH]c1=O` [d4TTP, 2'-3'-didehydro-2'-3'-dideoxythymidine triphosphate], in data set [3], the IC50 was 0.88 nM and the Ki came to 0.73 ± 0.22 nM.
One may read the Km as the concentration of substrate that gives half-maximal velocity. Take `Nc1ccn([C@H]2C[C@H](O)[C@@H](COP(=O)(O)OP(=O)(O)OP(=O)(O)O)O2)c(=O)n1` [dCTP]: the Michaelis-Menten constant (Km) in data set [3] (poly (rI)-oligo (dC)12-18, no inhibitor, read-out: Km value for dCTP substrate) stood at 0.38 µM.
Consider `Cc1cn([C@H]2C[C@H](O)[C@@H](COP(=O)(O)OP(=O)(O)OP(=O)(O)O)O2)c(=O)[nH]c1=O` [dTTP], for which, in data set [3] (poly (rA)-oligo (dT)12-18, no inhibitor, read-out: Km value for dTTP), the Km turned out to be 0.83 µM.
Turning to `Nc1ccn([C@H]2CC[C@@H](CO)O2)c(=O)n1` [ddC, 2'-3'-dideoxycytidine], the Relative retrotransposition efficiency is on record as <0.0025^c in [4] (5 μM), <0.0025^c in data set [4] (50 μM) and <0.005^c in [1] (50 μM).
On to `Nc1ccn([C@H]2CC[C@@H](COP(=O)(O)OP(=O)(O)OP(=O)(O)O)O2)c(=O)n1` [ddCTP, 2'-3'-dideoxycytidine triphosphate], for which, at Ty1 RT [2], the “increase of Ty1 RT activity” value is “up to 40%”. For the same compound, in data set [3], the IC50 was 1.04 nM and the Ki stood at 0.72 ± 0.16 nM.
On to `Nc1nc2c(ncn2[C@H]2CC[C@@H](COP(=O)(O)OP(=O)(O)OP(=O)(O)O)O2)c(=O)[nH]1` [ddGTP], for which the “decrease of Ty1 RT activity” value on Ty1 RT [6] was 90%.
On to `O=c1[nH]cnc2c1ncn2[C@H]1CC[C@@H](CO)O1` [ddI, 2'-3'-dideoxyinosine], for which the figures for the Relative retrotransposition efficiency in data set [4] (5 μM), in data set [4] (50 μM) and in data set [1] (50 μM) were <0.0025^c, <0.0025^c and <0.005^c, respectively.
